Source: ChEMBL document CHEMBL3885881, “DrugMatrix”

Organism: Rattus norvegicus
Experiment: DrugMatrix - Regimen: Daily Repeat
Assay type: toxicity, organism-based, Sprague-Dawley
Design: regimen Daily Repeat, gender Male, age 6-8 weeks
Conditions: in vivo, sc, […], route subcutaneous, dose 1.5 mg/Kg, dose level Low; for ABSOLUTE BASOPHIL / ABSOLUTE EOSINOPHIL / ABSOLUTE LYMPHOCYTE / ABSOLUTE MONOCYTE / ABSOLUTE SEGMENTED NEUTROPHIL / BASOPHIL / EOSINOPHIL / ERYTHROCYTE COUNT / HEMATOCRIT / HEMOGLOBIN / LEUKOCYTE COUNT / LYMPHOCYTE / MEAN CORPUSCULAR HEMOGLOBIN / MEAN CORPUSCULAR HEMOGLOBIN CONCENTRATION / MEAN CORPUSCULAR VOLUME / MONOCYTE / NEUTROPHIL / NUCLEATED RED BLOOD CELLS / PLATELET COUNT: tissue Blood; for ALANINE AMINOTRANSFERASE / ALBUMIN / ALKALINE PHOSPHATASE / ASPARTATE AMINOTRANSFERASE / BLOOD UREA NITROGEN / CARBON DIOXIDE / CHLORIDE / CHOLESTEROL / CREATINE PHOSPHOKINASE / CREATININE / GLUCOSE / LACTATE DEHYDROGENASE / LIPASE / PHOSPHORUS / POTASSIUM / SODIUM / TOTAL BILIRUBIN / TOTAL PROTEIN / URIC ACID: tissue Plasma

`CC1=C(/C=C/C(C)=C/C=C/C(C)=C/C(=O)O)C(C)(C)CCC1` [TRETINOIN] was tested, and the “ABSOLUTE BASOPHIL” value (72 h, time 3 day) was 0 CELLS/uL, the “ABSOLUTE EOSINOPHIL” value (72 h, time 3 day) was 41.67 CELLS/uL and the “ABSOLUTE LYMPHOCYTE” value (72 h, time 3 day) was 10665.33 CELLS/uL. The “ABSOLUTE MONOCYTE” value (72 h, time 3 day) was 55.67 CELLS/uL, the “ABSOLUTE SEGMENTED NEUTROPHIL” value (72 h, time 3 day) was 2104 CELLS/uL and the BASOPHIL (72 h, time 3 day) was 0%. For the same compound, the EOSINOPHIL (72 h, time 3 day) was 0.33%, the “ERYTHROCYTE COUNT” value (72 h, time 3 day) was 4.74 x10E6/uL and the HEMATOCRIT (72 h, time 3 day) was 30.27%. For the same compound, the HEMOGLOBIN (72 h, time 3 day) was 11.93 G/DL, the “LEUKOCYTE COUNT” value (72 h, time 3 day) was 12.87 x10E3/uL and the LYMPHOCYTE (72 h, time 3 day) was 83.67%. The “MEAN CORPUSCULAR HEMOGLOBIN” value (72 h, time 3 day) was 25.23 pg, the “MEAN CORPUSCULAR HEMOGLOBIN CONCENTRATION” value (72 h, time 3 day) was 39.47 G/DL and the “MEAN CORPUSCULAR VOLUME” value (72 h, time 3 day) was 63.87 fL. The MONOCYTE (72 h, time 3 day) was 0.33%, the NEUTROPHIL (72 h, time 3 day) was 15.67% and the “NUCLEATED RED BLOOD CELLS” value (72 h, time 3 day) was 0 /100WBC. For the same compound, the “PLATELET COUNT” value (72 h, time 3 day) was 1093.33 x10E3/uL, the “ALANINE AMINOTRANSFERASE” value (72 h, time 3 day) was 51 u/L and the ALBUMIN (72 h, time 3 day) was 4.23 G/DL. The “ALKALINE PHOSPHATASE” value (72 h, time 3 day) was 460.67 u/L, the “ASPARTATE AMINOTRANSFERASE” value (72 h, time 3 day) was 100 u/L and the “BLOOD UREA NITROGEN” value (72 h, time 3 day) was 15.67 mg/dL. For the same compound, the “CARBON DIOXIDE” value (72 h, time 3 day) was 22.33 mmol/L, the CHLORIDE (72 h, time 3 day) was 107.67 MEQ/L and the CHOLESTEROL (72 h, time 3 day) was 98.33 mg/dL. The “CREATINE PHOSPHOKINASE” value (72 h, time 3 day) was 387.67 u/L, the CREATININE (72 h, time 3 day) was 0.23 mg/dL and the GLUCOSE (72 h, time 3 day) was 164.33 mg/dL. For the same compound, the “LACTATE DEHYDROGENASE” value (72 h, time 3 day) was 522.33 u/L, the LIPASE (72 h, time 3 day) was 11.33 u/L and the PHOSPHORUS (72 h, time 3 day) was 12.5 mg/dL. The POTASSIUM (72 h, time 3 day) was 6.67 MEQ/L, the SODIUM (72 h, time 3 day) was 150.27 MEQ/L and the “TOTAL BILIRUBIN” value (72 h, time 3 day) was 0.27 mg/dL. For the same compound, the “TOTAL PROTEIN” value (72 h, time 3 day) was 6.27 G/DL, the “URIC ACID” value (72 h, time 3 day) was 1.97 mg/dL and the “ABSOLUTE BASOPHIL” value (120 h, time 5 day) was 0 CELLS/uL. The “ABSOLUTE EOSINOPHIL” value (120 h, time 5 day) was 0 CELLS/uL, the “ABSOLUTE LYMPHOCYTE” value (120 h, time 5 day) was 9182.33 CELLS/uL and the “ABSOLUTE MONOCYTE” value (120 h, time 5 day) was 21 CELLS/uL. For the same compound, the “ABSOLUTE SEGMENTED NEUTROPHIL” value (120 h, time 5 day) was 1630 CELLS/uL, the BASOPHIL (120 h, time 5 day) was 0% and the EOSINOPHIL (120 h, time 5 day) was 0%. The “ERYTHROCYTE COUNT” value (120 h, time 5 day) was 5.54 x10E6/uL, the HEMATOCRIT (120 h, time 5 day) was 34.87% and the HEMOGLOBIN (120 h, time 5 day) was 12.9 G/DL. The “LEUKOCYTE COUNT” value (120 h, time 5 day) was 10.83 x10E3/uL, the LYMPHOCYTE (120 h, time 5 day) was 85% and the “MEAN CORPUSCULAR HEMOGLOBIN” value (120 h, time 5 day) was 23.27 pg. For the same compound, the “MEAN CORPUSCULAR HEMOGLOBIN CONCENTRATION” value (120 h, time 5 day) was 37 G/DL, the “MEAN CORPUSCULAR VOLUME” value (120 h, time 5 day) was 62.9 fL and the MONOCYTE (120 h, time 5 day) was 0.33%. The NEUTROPHIL (120 h, time 5 day) was 14.67%, the “NUCLEATED RED BLOOD CELLS” value (120 h, time 5 day) was 0 /100WBC and the “PLATELET COUNT” value (120 h, time 5 day) was 981.67 x10E3/uL. The “ALANINE AMINOTRANSFERASE” value (120 h, time 5 day) was 52 u/L, the ALBUMIN (120 h, time 5 day) was 3.9 G/DL and the “ALKALINE PHOSPHATASE” value (120 h, time 5 day) was 336.33 u/L. For the same compound, the “ASPARTATE AMINOTRANSFERASE” value (120 h, time 5 day) was 91 u/L, the “BLOOD UREA NITROGEN” value (120 h, time 5 day) was 16.33 mg/dL and the “CARBON DIOXIDE” value (120 h, time 5 day) was 24.33 mmol/L. For the same compound, the CHLORIDE (120 h, time 5 day) was 107 MEQ/L, the CHOLESTEROL (120 h, time 5 day) was 79 mg/dL and the “CREATINE PHOSPHOKINASE” value (120 h, time 5 day) was 270.33 u/L. The CREATININE (120 h, time 5 day) was 0.17 mg/dL, the GLUCOSE (120 h, time 5 day) was 180.33 mg/dL and the “LACTATE DEHYDROGENASE” value (120 h, time 5 day) was 147.67 u/L. The LIPASE (120 h, time 5 day) was 10.33 u/L, the PHOSPHORUS (120 h, time 5 day) was 14.17 mg/dL and the POTASSIUM (120 h, time 5 day) was 6.48 MEQ/L. The SODIUM (120 h, time 5 day) was 147.97 MEQ/L, the “TOTAL BILIRUBIN” value (120 h, time 5 day) was 0.23 mg/dL and the “TOTAL PROTEIN” value (120 h, time 5 day) was 6.07 G/DL. The “URIC ACID” value (120 h, time 5 day) was 2.07 mg/dL.
